Results as given in ChEMBL document CHEMBL4806963, “Antagonistic peptides for frizzled-1 and frizzled-2” (2013).
Calls of active or inactive are those of the source. No cut-off for these calls is given here. Where a SMILES comes first, the peptide text is derived from it.

Columns and labels:
[1] = biological target: Frizzled-2 (Homo sapiens) (UniProt Q14332); assay: Antagonist activity at frizzled-2 (unknown origin) expressed in rat C-FIT cells assessed as inhibition of Wnt3a-stimulated cell differentiation changes by measuring alpha-smooth muscle actin gene expression at 10 nM by quantitative RT-PCR analysis; format: functional, cell-based; details: filed as antagonist
Frizzled-2 (Homo sapiens), sequence (Q14332 24-565 limits assumed): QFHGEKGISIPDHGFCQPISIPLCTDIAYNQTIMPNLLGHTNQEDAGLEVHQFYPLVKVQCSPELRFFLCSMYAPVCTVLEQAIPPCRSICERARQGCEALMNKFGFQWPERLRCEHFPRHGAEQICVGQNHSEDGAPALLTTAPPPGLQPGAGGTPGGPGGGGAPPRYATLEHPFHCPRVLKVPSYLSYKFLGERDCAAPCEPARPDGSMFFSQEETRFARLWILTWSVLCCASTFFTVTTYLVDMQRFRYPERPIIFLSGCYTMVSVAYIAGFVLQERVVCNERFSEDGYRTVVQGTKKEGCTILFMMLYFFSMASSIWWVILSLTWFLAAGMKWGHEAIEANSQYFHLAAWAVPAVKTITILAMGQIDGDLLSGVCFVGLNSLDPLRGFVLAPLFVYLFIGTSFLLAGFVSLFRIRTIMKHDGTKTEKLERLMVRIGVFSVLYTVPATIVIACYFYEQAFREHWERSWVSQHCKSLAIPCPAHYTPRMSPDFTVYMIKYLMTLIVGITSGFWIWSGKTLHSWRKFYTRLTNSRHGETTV

[2] = biological target: Frizzled-1 (Rattus norvegicus) (UniProt Q08463); assay: Antagonist activity at rat frizzled-1 expressed in rat C-FIT cells assessed as inhibition of Wnt5a-stimulated blockade of migration at 10 nM incubated for 48 hrs and measured for 24 hrs following the scratch by scratch wound healing assay; format: cell-based; details: filed as antagonist, time 72.0 hrs
Frizzled-1 (Rattus norvegicus), sequence (Q08463 whole entry): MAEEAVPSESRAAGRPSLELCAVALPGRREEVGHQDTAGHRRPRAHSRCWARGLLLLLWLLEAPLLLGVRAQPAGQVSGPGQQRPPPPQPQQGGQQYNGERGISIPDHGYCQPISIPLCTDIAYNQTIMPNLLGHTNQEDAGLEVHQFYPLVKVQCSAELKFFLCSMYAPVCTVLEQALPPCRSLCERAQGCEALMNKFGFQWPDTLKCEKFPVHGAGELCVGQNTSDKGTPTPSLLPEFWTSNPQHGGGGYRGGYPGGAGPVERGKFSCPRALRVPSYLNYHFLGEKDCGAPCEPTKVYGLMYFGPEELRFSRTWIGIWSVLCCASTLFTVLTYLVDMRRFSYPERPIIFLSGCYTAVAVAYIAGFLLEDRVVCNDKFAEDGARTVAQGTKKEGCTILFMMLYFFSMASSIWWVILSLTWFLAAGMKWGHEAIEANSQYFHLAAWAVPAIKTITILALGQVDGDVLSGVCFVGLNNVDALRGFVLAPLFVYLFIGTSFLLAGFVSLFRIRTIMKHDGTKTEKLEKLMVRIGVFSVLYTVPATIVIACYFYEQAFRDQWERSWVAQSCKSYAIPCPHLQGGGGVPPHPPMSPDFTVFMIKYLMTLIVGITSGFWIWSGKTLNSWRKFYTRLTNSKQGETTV

[3] = biological target: Frizzled-1 (Rattus norvegicus) (UniProt Q08463); assay: Antagonist activity at Wnt3a-stimulated rat frizzled-1 expressed in human HEK293superTOP flash cells at 10 nM incubated for 24 hrs by luciferase reporter gene assay relative to control; format: cell-based; details: HEK293, filed as antagonist
[4] = biological target: Frizzled-1 (Homo sapiens) (UniProt Q9UP38); assay: Antagonist activity at frizzled-1 (unknown origin) expressed in rat C-FIT cells assessed as inhibition of Wnt3a-stimulated cell differentiation changes by measuring alpha-smooth muscle actin gene expression at 10 nM by quantitative RT-PCR analysis; format: functional, cell-based; details: filed as antagonist
Frizzled-1 (Homo sapiens), sequence (Q9UP38 70-647 limits assumed): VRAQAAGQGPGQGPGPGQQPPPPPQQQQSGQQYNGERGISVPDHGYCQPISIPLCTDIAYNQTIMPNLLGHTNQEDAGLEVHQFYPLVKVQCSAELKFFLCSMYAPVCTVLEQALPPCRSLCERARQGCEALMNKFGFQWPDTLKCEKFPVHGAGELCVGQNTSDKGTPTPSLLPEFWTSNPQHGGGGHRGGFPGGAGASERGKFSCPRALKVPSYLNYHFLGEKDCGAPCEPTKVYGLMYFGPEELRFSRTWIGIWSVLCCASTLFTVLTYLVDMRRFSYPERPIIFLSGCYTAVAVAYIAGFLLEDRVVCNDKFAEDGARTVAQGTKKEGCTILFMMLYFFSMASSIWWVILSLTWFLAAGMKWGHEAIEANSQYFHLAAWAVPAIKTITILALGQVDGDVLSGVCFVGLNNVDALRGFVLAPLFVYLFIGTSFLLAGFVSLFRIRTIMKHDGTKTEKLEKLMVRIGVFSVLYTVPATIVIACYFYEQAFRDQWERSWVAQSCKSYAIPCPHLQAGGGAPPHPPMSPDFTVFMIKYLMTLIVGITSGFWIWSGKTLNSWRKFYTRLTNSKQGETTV

[5] = biological target: T1, Frizzled-4 (Homo sapiens) (UniProt Q9ULV1); assay: Antagonist activity at Wnt3a-stimulaed human frizzled-4 expressed in human HEK293superTOP flash cells at 10 nM incubated for 24 hrs by luciferase reporter gene assay; format: functional, cell-based; details: HEK293
T1 sequence (whole entry): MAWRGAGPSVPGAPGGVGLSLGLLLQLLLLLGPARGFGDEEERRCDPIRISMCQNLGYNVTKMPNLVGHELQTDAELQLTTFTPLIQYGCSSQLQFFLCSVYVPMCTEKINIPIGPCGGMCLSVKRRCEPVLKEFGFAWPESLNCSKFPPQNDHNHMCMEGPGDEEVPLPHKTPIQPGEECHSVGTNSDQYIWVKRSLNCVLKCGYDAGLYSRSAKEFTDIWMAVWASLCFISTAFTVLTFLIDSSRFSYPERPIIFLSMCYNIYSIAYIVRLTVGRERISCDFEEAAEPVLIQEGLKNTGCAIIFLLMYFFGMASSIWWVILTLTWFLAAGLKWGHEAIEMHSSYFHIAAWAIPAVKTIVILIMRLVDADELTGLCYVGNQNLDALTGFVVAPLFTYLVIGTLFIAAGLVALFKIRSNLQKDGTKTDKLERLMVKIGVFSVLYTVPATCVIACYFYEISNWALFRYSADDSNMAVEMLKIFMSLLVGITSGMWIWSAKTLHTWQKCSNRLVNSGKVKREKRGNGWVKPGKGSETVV

[6] = system: Mus musculus; assay: Cardioprotective activity against myocardial infarction Swiss mouse model assessed as increase in amount of blood vessels in heart at 6 ug/kg/day, sc via osmotic pumps for 5 weeks by immunohistochemical staining analysis; format: functional, organism-based; details: dose 6.0 µg/kg/day
[7] = biological target: Frizzled-1 (Homo sapiens) (UniProt Q9UP38); assay: Antagonist activity at Wnt3a-stimulaed human frizzled-1 expressed in human HEK293superTOP flash cells incubated for 24 hrs by luciferase reporter gene assay; format: functional, cell-based; details: HEK293, filed as antagonist
[8] = biological target: Frizzled-2 (Rattus norvegicus) (UniProt Q08464); assay: Agonist activity at rat frizzled-2 expressed in human HEK293superTOP flash cells by luciferase reporter gene assay; format: cell-based; details: HEK293
Frizzled-2 (Rattus norvegicus), sequence (Q08464 29-570 limits assumed): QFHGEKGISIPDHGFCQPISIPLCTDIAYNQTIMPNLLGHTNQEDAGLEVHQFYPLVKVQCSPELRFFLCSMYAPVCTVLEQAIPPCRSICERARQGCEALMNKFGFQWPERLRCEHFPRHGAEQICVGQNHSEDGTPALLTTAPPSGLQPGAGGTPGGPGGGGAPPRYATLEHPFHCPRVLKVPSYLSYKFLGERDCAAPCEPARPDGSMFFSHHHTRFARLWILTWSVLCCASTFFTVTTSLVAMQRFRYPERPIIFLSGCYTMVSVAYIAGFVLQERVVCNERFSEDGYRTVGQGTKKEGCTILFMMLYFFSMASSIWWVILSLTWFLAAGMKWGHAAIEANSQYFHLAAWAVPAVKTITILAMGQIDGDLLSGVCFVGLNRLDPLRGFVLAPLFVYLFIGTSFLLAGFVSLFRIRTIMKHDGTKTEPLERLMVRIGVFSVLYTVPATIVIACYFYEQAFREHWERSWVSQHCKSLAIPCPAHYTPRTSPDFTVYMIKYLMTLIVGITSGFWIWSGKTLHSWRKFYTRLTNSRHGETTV

[9] = biological target: Frizzled-2 (Rattus norvegicus) (UniProt Q08464); assay: Agonist activity at rat frizzled-2 expressed in African green monkey COS7 cells by luciferase reporter gene assay; format: cell-based
[10] = biological target: Frizzled-1 (Homo sapiens) (UniProt Q9UP38); assay: Antagonist activity at frizzled-1 (unknown origin) expressed in rat C-FIT cells assessed as inhibition of Wnt5a-stimulated cell differentiation changes by measuring alpha-smooth muscle actin gene expression at 10 nM by quantitative RT-PCR analysis; format: functional, cell-based; details: filed as antagonist
[11] = system: Mus musculus; assay: Cardioprotective activity against myocardial infarction Swiss mouse model assessed as increase in alpha-SMA gene expression in heart at 6 ug/kg/day, sc via osmotic pumps for 5 weeks by qPCR analysis; format: functional, organism-based; details: dose 6.0 µg/kg/day
[12] = biological target: Frizzled-1 (Rattus norvegicus) (UniProt Q08463); assay: Agonist activity at rat frizzled-1 expressed in human HEK293superTOP flash cells by luciferase reporter gene assay; format: cell-based; details: HEK293
[13] = biological target: Frizzled-1 (Mus musculus) (UniProt O70421); assay: Antagonist activity at Wnt3a-stimulaed mouse frizzled-1 expressed in human HEK293superTOP flash cells incubated for 24 hrs by luciferase reporter gene assay; format: cell-based; details: HEK293, filed as antagonist
Frizzled-1 (Mus musculus), sequence (O70421 whole entry, looked up): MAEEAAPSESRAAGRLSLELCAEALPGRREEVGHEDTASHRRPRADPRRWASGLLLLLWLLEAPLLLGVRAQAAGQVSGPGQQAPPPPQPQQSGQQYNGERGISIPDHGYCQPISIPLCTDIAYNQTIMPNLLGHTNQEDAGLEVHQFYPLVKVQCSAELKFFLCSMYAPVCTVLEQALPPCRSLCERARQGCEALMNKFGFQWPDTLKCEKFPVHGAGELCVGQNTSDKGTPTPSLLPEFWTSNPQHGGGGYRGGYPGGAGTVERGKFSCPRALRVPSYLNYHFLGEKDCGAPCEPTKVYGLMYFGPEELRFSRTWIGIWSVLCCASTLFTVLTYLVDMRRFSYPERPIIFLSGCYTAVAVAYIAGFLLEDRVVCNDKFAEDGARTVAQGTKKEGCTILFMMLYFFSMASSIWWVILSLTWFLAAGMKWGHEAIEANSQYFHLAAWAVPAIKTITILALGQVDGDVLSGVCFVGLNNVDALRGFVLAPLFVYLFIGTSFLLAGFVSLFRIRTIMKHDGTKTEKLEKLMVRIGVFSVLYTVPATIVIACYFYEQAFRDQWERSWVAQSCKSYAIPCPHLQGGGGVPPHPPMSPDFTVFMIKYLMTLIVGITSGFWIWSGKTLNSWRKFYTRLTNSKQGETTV

[14] = biological target: Frizzled-2 (Mus musculus) (UniProt Q9JIP6); assay: Antagonist activity at Wnt3a-stimulaed mouse frizzled-2 expressed in human HEK293superTOP flash cells incubated for 24 hrs by luciferase reporter gene assay; format: cell-based; details: HEK293, filed as antagonist
Frizzled-2 (Mus musculus), sequence (Q9JIP6 whole entry, looked up): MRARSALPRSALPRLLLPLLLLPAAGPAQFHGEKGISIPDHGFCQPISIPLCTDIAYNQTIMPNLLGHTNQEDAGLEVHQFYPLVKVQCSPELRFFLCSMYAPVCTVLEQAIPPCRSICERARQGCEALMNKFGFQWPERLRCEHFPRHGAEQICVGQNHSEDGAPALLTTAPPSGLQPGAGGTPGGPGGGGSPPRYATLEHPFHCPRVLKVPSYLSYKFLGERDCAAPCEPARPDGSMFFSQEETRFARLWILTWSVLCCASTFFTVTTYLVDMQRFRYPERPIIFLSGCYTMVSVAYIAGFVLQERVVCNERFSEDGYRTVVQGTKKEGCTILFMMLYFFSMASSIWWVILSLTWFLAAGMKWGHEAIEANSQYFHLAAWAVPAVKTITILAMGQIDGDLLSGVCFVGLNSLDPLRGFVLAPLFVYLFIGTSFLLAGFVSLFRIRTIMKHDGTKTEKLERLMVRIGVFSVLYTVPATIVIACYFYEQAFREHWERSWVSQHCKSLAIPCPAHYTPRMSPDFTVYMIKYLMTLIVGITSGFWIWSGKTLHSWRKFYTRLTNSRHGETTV

[15] = system: Mus musculus; assay: Cardioprotective activity against myocardial infarction Swiss mouse model assessed as reduction in wet lung weight at 6 ug/kg/day, sc via osmotic pumps for 5 weeks; format: functional, organism-based; details: dose 6.0 µg/kg/day
[16] = biological target: Frizzled-5 (Homo sapiens) (UniProt Q13467); assay: Antagonist activity at Wnt3a-stimulaed frizzled-5 (unknown origin) expressed in human HEK293superTOP flash cells incubated for 24 hrs by luciferase reporter gene assay; format: functional, cell-based; details: HEK293
Frizzled-5 (Homo sapiens), sequence (Q13467 whole entry): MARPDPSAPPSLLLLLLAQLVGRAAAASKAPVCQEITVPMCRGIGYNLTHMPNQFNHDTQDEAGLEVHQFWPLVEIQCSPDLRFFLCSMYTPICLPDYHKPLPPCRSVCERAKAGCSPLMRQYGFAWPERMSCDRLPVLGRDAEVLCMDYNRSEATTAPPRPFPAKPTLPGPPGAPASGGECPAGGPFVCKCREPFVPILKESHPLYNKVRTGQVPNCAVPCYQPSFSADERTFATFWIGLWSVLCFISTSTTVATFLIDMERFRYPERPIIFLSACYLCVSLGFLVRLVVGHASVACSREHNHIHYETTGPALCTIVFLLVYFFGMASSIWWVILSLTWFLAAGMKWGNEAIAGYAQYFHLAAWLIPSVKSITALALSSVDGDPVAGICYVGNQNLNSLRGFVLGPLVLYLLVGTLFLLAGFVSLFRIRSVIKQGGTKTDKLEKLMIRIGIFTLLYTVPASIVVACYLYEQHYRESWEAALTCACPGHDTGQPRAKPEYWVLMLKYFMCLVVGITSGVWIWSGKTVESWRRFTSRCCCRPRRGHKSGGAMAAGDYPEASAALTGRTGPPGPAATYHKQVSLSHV

[17] = biological target: Frizzled-1 (Rattus norvegicus) (UniProt Q08463); assay: Antagonist activity at Wnt3a-stimulated rat frizzled-1 expressed in African green monkey COS7 cells incubated for 24 hrs by luciferase reporter gene assay relative to control; format: cell-based; details: filed as antagonist, concentration not given here
[18] = biological target: Frizzled-2 (Homo sapiens) (UniProt Q14332); assay: Antagonist activity at frizzled-2 (unknown origin) expressed in rat C-FIT cells assessed as inhibition of Wnt3a-stimulated blockade of migration at 10 nM incubated for 48 hrs and measured for 24 hrs following the scratch by scratch wound healing assay; format: functional, cell-based; details: filed as antagonist, time 72.0 hrs
[19] = biological target: Frizzled-2 (Homo sapiens) (UniProt Q14332); assay: Antagonist activity at Wnt3a-stimulaed human frizzled-2 expressed in human HEK293superTOP flash cells incubated for 24 hrs by luciferase reporter gene assay; format: functional, cell-based; details: HEK293, filed as antagonist
[20] = system: Mus musculus; assay: Cardioprotective activity against myocardial infarction Swiss mouse model assessed as reduction in infarct area in heart at 6 ug/kg/day, sc via osmotic pumps for 2 to 5 weeks by immunohistochemical staining analysis; format: functional, organism-based; details: dose 6.0 µg/kg/day, time 2-5 weeks
[21] = biological target: Frizzled-5 (Homo sapiens) (UniProt Q13467); assay: Antagonist activity at Wnt3a-stimulaed human frizzled-5 expressed in human HEK293superTOP flash cells at 10 nM incubated for 24 hrs by luciferase reporter gene assay; format: functional, cell-based; details: HEK293
[22] = biological target: Frizzled-2 (Homo sapiens) (UniProt Q14332); assay: Antagonist activity at Wnt3a-stimulaed frizzled-2 (unknown origin) expressed in human HEK293superTOP flash cells at 1 nM incubated for 24 hrs by luciferase reporter gene assay (reference value: 0%); format: functional, cell-based; details: HEK293, filed as antagonist
[23] = biological target: Frizzled-2 (Homo sapiens) (UniProt Q14332); assay: Antagonist activity at Wnt3a-stimulated frizzled-2 (unknown origin) expressed in human HEK293superTOP flash cells incubated for 24 hrs by luciferase reporter gene assay; format: functional, cell-based; details: HEK293, filed as antagonist
[24] = biological target: Frizzled-1 (Rattus norvegicus) (UniProt Q08463); assay: Antagonist activity at Wnt3a-stimulated rat frizzled-1 expressed in CHO cells incubated for 24 hrs by luciferase reporter gene assay relative to control; format: cell-based; details: filed as antagonist, concentration not given here
[25] = biological target: Frizzled-1 (Homo sapiens) (UniProt Q9UP38); assay: Antagonist activity at Wnt3a-stimulaed frizzled-1 (unknown origin) expressed in human HEK293superTOP flash cells at 1 nM incubated for 24 hrs by luciferase reporter gene assay (reference value: 0%); format: functional, cell-based; details: HEK293, filed as antagonist
[26] = biological target: T1, Frizzled-4 (Homo sapiens); assay: Antagonist activity at Wnt3a-stimulaed frizzled-4 (unknown origin) expressed in human HEK293superTOP flash cells incubated for 24 hrs by luciferase reporter gene assay; format: functional, cell-based; details: HEK293
[27] = system: Mus musculus; assay: Cardioprotective activity against myocardial infarction Swiss mouse model assessed as ventricular dilation at 6 ug/kg/day, sc via osmotic pumps for 5 weeks by macroscopic analysis; format: functional, organism-based; details: dose 6.0 µg/kg/day
[28] = biological target: Frizzled-2 (Rattus norvegicus) (UniProt Q08464); assay: Agonist activity at rat frizzled-2 expressed in CHO cells by luciferase reporter gene assay; format: cell-based
[29] = biological target: Frizzled-1 (Rattus norvegicus) (UniProt Q08463); assay: Agonist activity at rat frizzled-1 expressed in CHO cells by luciferase reporter gene assay; format: cell-based

inhibition [1]: 100%
inhibition [2]: 100%
inhibition [3]: 100%
inhibition [4]: 100%
inhibition [5]: inactive
inhibition [7]: Active
Activity [8]: inactive
Activity [9]: inactive
inhibition [10]: 100%
Activity [12]: inactive
inhibition [13]: Active
inhibition [14]: Active
inhibition [16]: inactive
inhibition [17]: 100%
inhibition [18]: 100%
inhibition [19]: Active
inhibition [21]: inactive
inhibition [22]: 61.2%
inhibition [23]: Dose-Dependent Effect
inhibition [24]: 100%
inhibition [25]: 18%
inhibition [26]: inactive
Activity [28]: inactive
Activity [29]: inactive
Compound: CSCC[C@H](NC(=O)CNC(=O)[C@H](CCC(=O)O)NC(=O)[C@H](CO)NC(=O)[C@@H](NC(=O)[C@H](CCCCN)NC(=O)[C@H](CC(N)=O)NC(=O)[C@H](CS)NC(C)=O)[C@@H](C)O)C(=O)N[C@@H](CC(=O)O)C(=O)NCC(=O)N[C@@H](CS)C(=O)N[C@@H](CCC(=O)O)C(=O)N[C@@H](CC(C)C)C(N)=O (Ac-CNKTSEGMDGCEL-NH2)
Activity [6]: Active
Activity [11]: Active
Activity [15]: Active
Activity [20]: Active
Activity [27]: Active
